According to PMC6153549 (Investigational New Drugs, 2018):
Values joined by “and” are separate entries in the source; they are usually repeats but may differ in a detail not shown here. Equal values may be shown once. “Also recorded” adds a separate entry of the source. Read-outs that look alike come from different tables or passages of the source. Blank lines part the entries; values can stand above or below the molecule they belong to.

How the values were obtained:
[1] = Plasma pharmacokinetics of paracetamol, paracetamol glucuronide and paracetamol sulphate in rats (HPLC-UV, non-compartmental); format: in vivo, Wistar rats; conditions: for AUC(0-inf) / Vd/F / k el / AUC0-t / Cmax / MRT last / AUMC0-t / t0.5 / AUC0-∞: plasma; for MRT last: read-out: MRT0-t
Description: (§1) The experimental protocol for this study was reviewed and approved by the Local Ethics Committee. All procedures were performed in accordance with the European Union regulations concerning the handling and use of laboratory animals. The study was based on the required minimum number of animals and observation time in order to obtain consistent data. […] The animals were allowed to acclimatise for a week before the beginning of the experiments. The rats were divided into three groups. […] In order to make sure that the animals received the entire dose of the drug, 1 mL of DMSO was then administered to rinse the probe. 80 μL of blood was collected from each rat by cutting off a piece of his tail. […] The blood samples were transferred into heparinised tubes and they were centrifuged at 2880 g for 10 min at 4 °C.
The total time of analysis for each run was 10 min. The column temperature was maintained at 25 °C, the UV detection wavelength was set at 261 nm, and the injection volume was 50 μL. The validation was performed according to the guidelines of the European Medicines Agency (EMA) concerning validation of bioanalytical methods. […] 20 μL of the internal standard solution and 200 μL of 6% perchloric acid were added to 100 μL of the rat plasma. The samples were shaken for 30 s and then they were centrifuged for 10 min at 5000 g. About 100 μL of the resulting supernatants was transferred into glass inserts and a volume of 50 μL was injected onto HPLC column.
(§2) The pharmacokinetic parameters were estimated with the non-compartmental method, using Phoenix® WinNonlin® 7.0 software (Certara L.P.). kel – elimination rate constant; AUC0-t – area under the plasma concentration-time curve from zero to the time of the last measurable concentration; AUC0-∞ – area under the plasma concentration-time curve from zero to infinity; t0.5 – elimination half-life; Cl/F – clearance; Vd/F – volume of distribution; Cmax – maximum plasma concentration; tmax – time necessary to reach the maximum concentration; MRT0-t – mean residence time; AUMC0-t – area under the first moment curve.

[2] = liver metabolism; cited from earlier work
UGTs = conditions: in vitro, human liver microsomes; cited from earlier work
[3] = Plasma pharmacokinetics of lapatinib in rats (HPLC-MS/MS, non-compartmental); format: in vivo, Wistar rats; conditions: for AUC0-t / AUC(0-inf) / Cmax / Vd/F / k el / MRT last / tmax / AUMC0-t / Cl/F: plasma; for MRT last: read-out: MRT0-t
Description: as §1
Chromatographic separation was performed on a Kinetex C18 column (50 × 4.6 mm, 2.6 μm, Phenomenex, Torrance, CA, USA). The column temperature and injection volume were set at 35 °C and 10 μL, respectively. The mobile phase comprised 0.1% formic acid in water with 5 mM ammonium formate (eluent A) and acetonitrile with 10% phase A (eluent B).
An aliquot of the rat plasma (20 μL) was mixed with 50 μL of IS solution (100 ng/mL) and 930 μL of methanol and then vortexed for 30 s. As a result, a total dilution factor of 50 was obtained. After centrifugation at 10,000 g (10 min), the supernatant was transferred into amber glass HPLC vials. The validation was performed according to the guidelines of EMA concerning validation of bioanalytical methods.
as §2

[4] = cited from earlier work
UGT1A1 = system: UGT1A1; set-up: method as in PMID 26642944; conditions: cited from earlier work
UGT1A7 = system: UGT1A7; set-up: method as in PMID 26642944; conditions: cited from earlier work
UGT1A4 = system: UGT1A4; set-up: method as in PMID 26642944; conditions: cited from earlier work
[5] = set-up: method as in PMID 28070719; reduction of exposure to sunitinib by paracetamol / reduction of exposure to sunitinib in liver by paracetamol / reduction of exposure to sunitinib in kidneys by paracetamol / reduction of exposure to sunitinib in brain by paracetamol: concentration or dose not given beside the values; conditions: cited from earlier work
[6] = male mice which received paracetamol; cited from earlier work
[7] = lapatinib administered together with leucovorin, irinotecan and 5-fluorouracil; cited from earlier work
[8] = male, Wistar, rat, po, 100 mg/kg, paracetamol 100 mg/kg p.o. + lapatinib 100 mg/kg p.o. (IL + PA), M ± SD
[9] = male, Wistar, rat, po, 100 mg/kg, paracetamol 100 mg/kg p.o. alone (IIIPA), M ± SD
[10] = paracetamol 100 mg/kg p.o. + lapatinib 100 mg/kg p.o. (IL + PA), M ± SD
[11] = paracetamol 100 mg/kg p.o. alone (IIIPA), M ± SD
[12] = male, Wistar, rat, po, 100 mg/kg, rats, lapatinib 100 mg/kg p.o. + paracetamol 100 mg/kg p.o. (IL + PA), M ± SD
[13] = male, Wistar, rat, po, 100 mg/kg, rats, lapatinib 100 mg/kg p.o. alone (IIL), M ± SD
[14] = rats, lapatinib 100 mg/kg p.o. + paracetamol 100 mg/kg p.o. (IL + PA), M ± SD
[15] = rats, lapatinib 100 mg/kg p.o. alone (IIL), M ± SD
[16] = patients treated with lapatinib
[17] = paracetamol + lapatinib 100 mg/kg p.o. each (IL + PA), M ± SD
[18] = IL + PA vs IIIPA group, listed as paracetamol glucoronide

decrease in AUC0-t ([1]; IL + PA vs IIIPA group): ~56.8%
decrease in AUC0-∞ ([1]; IL + PA vs IIIPA group): 48.8%
increase in MRT0-t ([1]; IL + PA vs IIIPA group): 12.1%
increase in Vd/F ([1]; IL + PA vs IIIPA group): 351.5%
AUC(0-inf) [1, 8]: 45400 ± 21200 ng·h/mL
Vd/F [1, 8]: 8.94 ± 8.04 L
k el [1, 8]: 6.67e-05 s⁻¹
AUC0-t ([1]; male, Wistar, rat, po, 100 mg/kg, paracetamol 100 mg/kg p.o. + lapatinib 100 mg/kg p.o. (IL + PA), M ± SD, read-out: AUC0-t): 34800 ± 20100 ng·h/mL
Cmax ([1]; male, Wistar, rat, po, 100 mg/kg, paracetamol 100 mg/kg p.o. + lapatinib 100 mg/kg p.o. (IL + PA), M ± SD, read-out: Cmax): 10900 ± 6880 ng/mL
MRT last [1, 8]: 2.88 ± 0.27 h
AUC(0-inf) [1, 9]: 88600 ± 8960 ng·h/mL
Vd/F [1, 9]: 1.98 ± 0.63 L
k el [1, 9]: 9.17e-05 s⁻¹
AUC0-t ([1]; male, Wistar, rat, po, 100 mg/kg, paracetamol 100 mg/kg p.o. alone (IIIPA), M ± SD, read-out: AUC0-t): 80500 ± 12100 ng·h/mL
Cmax ([1]; male, Wistar, rat, po, 100 mg/kg, paracetamol 100 mg/kg p.o. alone (IIIPA), M ± SD, read-out: Cmax): 24700 ± 8430 ng/mL
MRT last [1, 9]: 2.57 ± 0.3 h
AUMC0-t [1, 10]: 97.11 ± 52.00 (53.6) μg × h^2/mL
t0.5 [1, 10]: 5.30 ± 6.92 (130.7) h
AUMC0-t [1, 11]: 203.85 ± 18.15 (8.9) μg × h^2/mL
t0.5 [1, 11]: 2.26 ± 0.70 (31.0) h
SMILES: CC(=O)Nc1ccc(O)cc1 [paracetamol, Paracetamol]
fraction oxidised to toxic metabolite NAPQI [2]: less than 10%
fraction transformed by glucuronidation [2]: 40–60%
fraction transformed by sulphation [2]: 20–46%

SMILES: CNC(=O)c1cc(Oc2ccc(NC(=O)Nc3ccc(Cl)c(C(F)(F)F)c3)cc2)ccn1 [sorafenib]
inhibition of paracetamol glucuronidation (UGTs): inhibited paracetamol glucuronidation

AUC0-t [3, 12]: 20700 ± 8270 ng·h/mL
AUC(0-inf) [3, 12]: 39500 ± 24000 ng·h/mL
Cmax [3, 12]: 2240 ± 585 ng/mL
Vd/F [3, 12]: 17.5 ± 2.55 L
k el [3, 12]: 1.94e-05 s⁻¹
MRT last [3, 12]: 7.28 ± 3.15 h
AUC0-t [3, 13]: 6080 ± 3930 ng·h/mL
AUC(0-inf) [3, 13]: 8040 ± 4750 ng·h/mL
Cmax [3, 13]: 787 ± 213 ng/mL
Vd/F [3, 13]: 57.2 ± 23.3 L
k el [3, 13]: 2.5e-05 s⁻¹
MRT last [3, 13]: 5.77 ± 1.95 h
tmax ([3]; male, Wistar, rat, po, 100 mg/kg, read-out: tmax): 2.42 ± 1.11 h
increase in Cmax ([3]; rats, co-administration with paracetamol (IL + PA) vs lapatinib alone (IIL)): 184%
AUMC0-t [3, 14]: 620.79 ± 1170.66 (188.6) mg × h^2/L
Cl/F [3, 14]: 2.81 ± 1.20 (42.8) L/h
tmax [3, 14]: 2.50 ± 0.84 (33.5) h
AUMC0-t [3, 15]: 40.79 ± 37.98 (93.1) mg × h^2/L
Cl/F [3, 15]: 11.46 ± 6.76 (59.0) L/h
SMILES: CS(=O)(=O)CCNCc1ccc(-c2ccc3ncnc(Nc4ccc(OCc5cccc(F)c5)c(Cl)c4)c3c2)o1 [lapatinib, Lapatinib]
patients with isolated ALT increase more than 3 times ULN ([4]; patients subjected to lapatinib therapy): 3–5%
patients in whom ULN was exceeded 5–20 times [4, 16]: 1.6%
patients with hyperbilirubinemia and severe liver damage [4, 16]: 0.2%
inhibition of paracetamol glucuronidation (UGTs): slight inhibitory effect; also recorded: weak inhibitor
UGT1A1 inhibition (UGT1A1): strong competitive inhibitor
UGT1A7 inhibition type (UGT1A7): non-competitive
UGT1A4 inhibition type (UGT1A4): mixed

SMILES: Cc1ccc(NC(=O)c2ccc(CN3CCN(C)CC3)cc2)cc1Nc1nccc(-c2cccnc2)n1 [imatinib]
inhibition of paracetamol glucuronidation (UGTs): inhibited paracetamol glucuronidation

SMILES: C#Cc1cccc(Nc2ncnc3cc(OCCOC)c(OCCOC)cc23)c1 [erlotinib, Erlotinib]
inhibition of paracetamol glucuronidation (UGTs): slight inhibitory effect

SMILES: COc1cc2c(Nc3ccc(Br)cc3F)ncnc2cc1OCC1CCN(C)CC1 [vandetanib]
inhibition of paracetamol glucuronidation (UGTs): slight inhibitory effect

SMILES: CCN(CC)CCNC(=O)c1c(C)[nH]c(/C=C2\C(=O)Nc3ccc(F)cc32)c1C [sunitinib]
effect of paracetamol on sunitinib concentration ([5]; female mice): did not affect the concentration
reduction of exposure to sunitinib in brain by paracetamol ([5]; female mice): 50%
reduction of exposure to sunitinib in kidneys by paracetamol ([5]; female mice): 20%
reduction of exposure to sunitinib in liver by paracetamol ([5]; female mice): 9%
reduction of exposure to sunitinib by paracetamol ([5]; male mice): 29%
reduction of exposure to sunitinib in brain by paracetamol ([5]; male mice): 47%
reduction of exposure to sunitinib in kidneys by paracetamol ([5]; male mice): 15%
reduction of exposure to sunitinib in liver by paracetamol ([5]; male mice): 15%
kidney sunitinib concentration vs control group [6]: 1.4 times
liver sunitinib concentration vs control group [6]: 2.2 times

SMILES: CCc1c2c(nc3ccc(O)cc13)-c1cc3c(c(=O)n1C2)COC(=O)[C@]3(O)CC [SN-38]
increase in AUC of SN-38 [7]: about 40%

SMILES: Cc1cn(-c2cc(NC(=O)c3ccc(C)c(Nc4nccc(-c5cccnc5)n4)c3)cc(C(F)(F)F)c2)cn1 [nilotinib]
inhibition of paracetamol glucuronidation (UGTs): slight inhibitory effect

increase in AUC0-t ([1]; IL + PA vs IIIPA group): ~61% and 61.4%
AUC0-t [1, 10]: 116.04 ± 27.02 (23.3) μg × h/mL
AUC0-∞ [1, 10]: 130.23 ± 31.32 (24.1) μg × h/mL
Cmax [1, 10]: 35.15 ± 6.61 (18.8) μg/mL
paracetamol sulphate/paracetamol ratio, AUC0-t [1, 11]: 0.91 ± 0.43 (47.3)
paracetamol sulphate/paracetamol ratio, AUC0-∞ [1, 11]: 1.05 ± 0.45 (43.1)
paracetamol sulphate/paracetamol ratio, Cmax [1, 11]: 0.88 ± 0.46 (52.7)
AUC0-t [1, 11]: 71.92 ± 31.04 (43.2) μg × h/mL
AUC0-∞ [1, 11]: 82.42 ± 32.71 (39.7) μg × h/mL
Cmax [1, 11]: 19.41 ± 7.05 (36.4) μg/mL
paracetamol sulphate/paracetamol ratio, AUC0-t [1, 17]: 4.27 ± 2.29 (53.5)
paracetamol sulphate/paracetamol ratio, AUC0-∞ [1, 17]: 4.86 ± 2.74 (56.5)
paracetamol sulphate/paracetamol ratio, Cmax [1, 17]: 4.73 ± 3.02 (64.0)
SMILES: CC(=O)Nc1ccc(OS(=O)(=O)O)cc1 [paracetamol sulphate]

decrease in AUC0-t ([1]; IL + PA vs IIIPA group): 26%
decrease in AUC0-∞ ([1]; IL + PA vs IIIPA group): 29%
decrease in Cmax ([1]; IL + PA vs IIIPA group): 24%
decrease in AUC0-t [1, 18]: ~25.5%
decrease in AUC0-∞ [1, 18]: ~28.6%
decrease in Cmax [1, 18]: about 24.4%
AUC0-t [1, 10]: 101.50 ± 22.02 (21.7) μg × h/mL
AUC0-∞ [1, 10]: 109.94 ± 22.89 (20.8) μg × h/mL
Cmax [1, 10]: 29.01 ± 7.62 (26.3) μg/mL
paracetamol glucuronide/paracetamol ratio, AUC0-t [1, 11]: 1.75 ± 0.47 (27.1)
paracetamol glucuronide/paracetamol ratio, Cmax [1, 11]: 1.67 ± 0.41 (24.7)
AUC0-t [1, 11]: 136.24 ± 23.58 (17.31) μg × h/mL
AUC0-∞ [1, 11]: 154.08 ± 35.58 (23.09) μg × h/mL
Cmax [1, 11]: 38.38 ± 3.75 (9.76) μg/mL
paracetamol glucuronide/paracetamol ratio, AUC0-t [1, 17]: 3.68 ± 1.67 (45.4)
paracetamol glucuronide/paracetamol ratio, AUC0-∞ [1, 17]: 3.36 ± 2.37 (70.6)
paracetamol glucuronide/paracetamol ratio, Cmax [1, 17]: 3.58 ± 1.85 (51.5)
SMILES: CC(=O)Nc1ccc(O[C@@H]2O[C@H](C(=O)O)[C@@H](O)[C@H](O)[C@H]2O)cc1 [paracetamol glucuronide]

SMILES: Cc1nc(Nc2ncc(C(=O)Nc3c(C)cccc3Cl)s2)cc(N2CCN(CCO)CC2)n1 [dasatinib]
inhibition of paracetamol glucuronidation (UGTs): inhibited paracetamol glucuronidation
